From publication PMC4917279 (Journal of Medicinal Chemistry, 2016)
Entries after “also recorded” stand apart in the source; their conditions may differ.

What was measured:
[1] = target: T1, ABL1(Y253F)-phosphorylated (Homo sapiens, UniProt P00519, Y253F); test: KINOMEscan; assay type: binding; conditions: read-out: %Ctrl @ 1000 nM
T1 construct: purchased DiscoveRx

PIK3CA(C420R) = target: T2, PIK3CA(C420R) (Homo sapiens, UniProt P42336, C420R); test: KINOMEscan; assay type: binding; conditions: read-out: %Ctrl @ 1000 nM
T2 construct: purchased DiscoveRx KINOMEscan

KIT(D816V) = target: T3, KIT(D816V) (Homo sapiens, UniProt P10721, D816V); test: KINOMEscan; assay type: binding; conditions: read-out: %Ctrl @ 1000 nM
T3 construct: purchased DiscoveRx KINOMEscan

TRKC = target: T4, TRKC (Homo sapiens, UniProt Q16288); test: KINOMEscan; assay type: binding; conditions: read-out: %Ctrl @ 1000 nM
T4 construct: purchased DiscoveRx KINOMEscan

ZAK = target: T5, ZAK (Homo sapiens, UniProt Q9NYL2); test: KINOMEscan; assay type: binding; conditions: read-out: %Ctrl @ 1000 nM
T5 construct: purchased DiscoveRx
T5 sequence (Q9NYL2 whole entry): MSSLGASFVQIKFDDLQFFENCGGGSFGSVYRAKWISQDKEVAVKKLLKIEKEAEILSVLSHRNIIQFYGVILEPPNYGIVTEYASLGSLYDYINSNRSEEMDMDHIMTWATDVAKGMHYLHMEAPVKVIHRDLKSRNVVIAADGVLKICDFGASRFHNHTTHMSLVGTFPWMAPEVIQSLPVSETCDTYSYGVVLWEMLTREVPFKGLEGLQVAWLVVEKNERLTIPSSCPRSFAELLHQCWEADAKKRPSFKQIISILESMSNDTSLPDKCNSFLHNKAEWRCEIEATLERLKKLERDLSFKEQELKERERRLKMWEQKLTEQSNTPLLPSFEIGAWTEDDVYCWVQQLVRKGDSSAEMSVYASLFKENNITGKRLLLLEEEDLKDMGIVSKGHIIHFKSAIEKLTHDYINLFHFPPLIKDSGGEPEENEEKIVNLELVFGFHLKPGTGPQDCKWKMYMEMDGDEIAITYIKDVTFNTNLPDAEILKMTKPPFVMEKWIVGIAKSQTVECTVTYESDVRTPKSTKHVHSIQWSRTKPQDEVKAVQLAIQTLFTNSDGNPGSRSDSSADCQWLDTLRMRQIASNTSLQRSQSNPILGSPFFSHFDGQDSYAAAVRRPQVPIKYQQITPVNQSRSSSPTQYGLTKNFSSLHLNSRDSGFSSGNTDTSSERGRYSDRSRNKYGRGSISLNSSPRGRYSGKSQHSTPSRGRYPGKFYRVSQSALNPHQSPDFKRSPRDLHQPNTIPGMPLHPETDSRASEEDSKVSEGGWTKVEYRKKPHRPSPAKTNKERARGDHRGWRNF

FGR = target: T6, FGR (Homo sapiens, UniProt P09769); test: KINOMEscan; assay type: binding; conditions: read-out: %Ctrl @ 1000 nM
T6 construct: purchased DiscoveRx KINOMEscan

EPHA2 = target: T7, EPHA2 (Homo sapiens, UniProt P29317); test: KINOMEscan; assay type: binding; conditions: read-out: %Ctrl @ 1000 nM
T7 construct: purchased DiscoveRx KINOMEscan

EPHA8 = target: T8, EPHA8 (Homo sapiens, UniProt P29322); test: KINOMEscan; assay type: binding; conditions: read-out: %Ctrl @ 1000 nM
T8 construct: purchased DiscoveRx KINOMEscan

NIM1 = target: T9, NIM1 (Homo sapiens, UniProt Q8IY84); test: KINOMEscan; assay type: binding; conditions: read-out: %Ctrl @ 1000 nM
T9 construct: purchased DiscoveRx KINOMEscan

DCAMKL2 = target: T10, DCAMKL2 (Homo sapiens, UniProt Q8N568); test: KINOMEscan; assay type: binding; conditions: read-out: %Ctrl @ 1000 nM
T10 construct: purchased DiscoveRx KINOMEscan

[2] = target: T11, RSK4(Kin.Dom.1-N-terminal) (Homo sapiens, UniProt Q9UK32); test: KINOMEscan; assay type: binding; conditions: read-out: %Ctrl @ 1000 nM
T11 construct: RSK4(Kin.Dom.1-N-terminal); purchased DiscoveRx KINOMEscan

MLK1 = target: T12, MLK1 (Homo sapiens, UniProt P80192); test: KINOMEscan; assay type: binding; conditions: read-out: %Ctrl @ 1000 nM
T12 construct: purchased DiscoveRx KINOMEscan

SMYD2 = SMYD2 (Homo sapiens, UniProt Q9NRG4); test: Mechanism-of-inhibition studies (SPA, Cheng-Prusoff); assay type: biochemical; set-up: The SMYD2 full-length enzyme with an N-terminal 6xHis tag was expressed in Escherichia coli; made in house; host or cells: Escherichia coli
SMYD2, sequence (Q9NRG4 whole entry): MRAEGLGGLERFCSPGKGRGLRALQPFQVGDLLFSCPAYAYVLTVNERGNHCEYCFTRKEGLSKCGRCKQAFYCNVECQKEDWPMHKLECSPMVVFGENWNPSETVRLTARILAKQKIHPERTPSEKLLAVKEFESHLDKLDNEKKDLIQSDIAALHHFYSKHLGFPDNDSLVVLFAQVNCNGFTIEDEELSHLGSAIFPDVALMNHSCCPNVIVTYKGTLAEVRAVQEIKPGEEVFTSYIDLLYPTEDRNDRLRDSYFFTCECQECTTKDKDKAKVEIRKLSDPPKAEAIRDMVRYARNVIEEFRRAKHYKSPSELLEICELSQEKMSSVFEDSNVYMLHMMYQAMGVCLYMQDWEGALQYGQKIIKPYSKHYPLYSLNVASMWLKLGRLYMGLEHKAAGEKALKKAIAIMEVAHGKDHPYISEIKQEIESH

AURKB = target: T13, AURKB (Homo sapiens, UniProt Q96GD4); test: KINOMEscan; assay type: binding; conditions: read-out: %Ctrl @ 1000 nM
T13 construct: purchased DiscoveRx KINOMEscan
T13 sequence (Q96GD4 whole entry): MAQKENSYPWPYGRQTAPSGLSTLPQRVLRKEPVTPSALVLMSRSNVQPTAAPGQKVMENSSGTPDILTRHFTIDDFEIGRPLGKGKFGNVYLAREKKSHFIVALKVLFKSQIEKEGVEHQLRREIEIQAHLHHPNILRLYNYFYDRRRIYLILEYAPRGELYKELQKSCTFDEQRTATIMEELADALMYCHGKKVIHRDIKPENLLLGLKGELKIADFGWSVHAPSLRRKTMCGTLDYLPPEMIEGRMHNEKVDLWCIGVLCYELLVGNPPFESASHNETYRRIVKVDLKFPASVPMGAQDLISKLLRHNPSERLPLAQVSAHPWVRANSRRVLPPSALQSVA

CHEK2 = target: T14, CHEK2 (Homo sapiens, UniProt O96017); test: KINOMEscan; assay type: binding; conditions: read-out: %Ctrl @ 1000 nM
T14 construct: purchased DiscoveRx KINOMEscan
T14 sequence (O96017 whole entry): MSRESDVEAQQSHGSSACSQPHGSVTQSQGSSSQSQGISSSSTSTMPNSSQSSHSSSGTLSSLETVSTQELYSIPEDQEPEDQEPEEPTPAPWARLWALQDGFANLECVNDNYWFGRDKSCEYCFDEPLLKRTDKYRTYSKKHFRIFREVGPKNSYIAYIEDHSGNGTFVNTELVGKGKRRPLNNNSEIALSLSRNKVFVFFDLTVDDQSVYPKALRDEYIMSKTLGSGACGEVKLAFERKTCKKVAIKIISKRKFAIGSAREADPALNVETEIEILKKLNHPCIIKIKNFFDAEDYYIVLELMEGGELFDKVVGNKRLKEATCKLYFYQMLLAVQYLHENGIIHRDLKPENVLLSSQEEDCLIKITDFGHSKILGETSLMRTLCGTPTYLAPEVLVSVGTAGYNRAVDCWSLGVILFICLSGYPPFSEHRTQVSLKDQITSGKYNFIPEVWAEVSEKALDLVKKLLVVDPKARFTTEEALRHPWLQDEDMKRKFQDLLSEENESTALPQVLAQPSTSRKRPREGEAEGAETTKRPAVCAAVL

MKK7 = target: T15, MKK7 (Homo sapiens, UniProt O14733); test: KINOMEscan; assay type: binding; conditions: read-out: %Ctrl @ 1000 nM
T15 construct: purchased DiscoveRx KINOMEscan

HASPIN = target: T16, HASPIN (Homo sapiens, UniProt Q8TF76); test: KINOMEscan; assay type: binding; conditions: read-out: %Ctrl @ 1000 nM
T16 construct: purchased DiscoveRx KINOMEscan

CLK4 = target: T17, CLK4 (Homo sapiens, UniProt Q9HAZ1); test: KINOMEscan; assay type: binding; conditions: read-out: %Ctrl @ 1000 nM
T17 construct: purchased DiscoveRx KINOMEscan
T17 sequence (Q9HAZ1 whole entry): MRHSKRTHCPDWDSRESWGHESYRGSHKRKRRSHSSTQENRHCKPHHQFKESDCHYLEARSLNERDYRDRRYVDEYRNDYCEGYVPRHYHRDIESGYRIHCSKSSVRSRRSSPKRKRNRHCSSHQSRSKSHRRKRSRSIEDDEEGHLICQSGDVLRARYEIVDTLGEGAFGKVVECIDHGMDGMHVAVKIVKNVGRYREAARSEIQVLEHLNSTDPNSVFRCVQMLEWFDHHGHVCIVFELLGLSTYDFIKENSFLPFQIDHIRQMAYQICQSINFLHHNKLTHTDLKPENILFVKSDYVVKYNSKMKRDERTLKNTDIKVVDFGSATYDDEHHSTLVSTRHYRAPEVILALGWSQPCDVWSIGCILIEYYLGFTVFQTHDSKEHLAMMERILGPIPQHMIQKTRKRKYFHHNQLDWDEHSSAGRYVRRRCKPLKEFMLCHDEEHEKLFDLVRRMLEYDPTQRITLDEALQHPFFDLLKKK

TAOK2 = target: T18, TAOK2 (Homo sapiens, UniProt Q9UL54); test: KINOMEscan; assay type: binding; conditions: read-out: %Ctrl @ 1000 nM
T18 construct: purchased DiscoveRx KINOMEscan

CDKL2 = target: T19, CDKL2 (Homo sapiens, UniProt Q92772); test: KINOMEscan; assay type: binding; conditions: read-out: %Ctrl @ 1000 nM
T19 construct: purchased DiscoveRx KINOMEscan

EPHB2 = target: T20, EPHB2 (Homo sapiens, UniProt P29323); test: KINOMEscan; assay type: binding; conditions: read-out: %Ctrl @ 1000 nM
T20 construct: purchased DiscoveRx KINOMEscan

VRK2 = target: T21, VRK2 (Homo sapiens, UniProt Q86Y07); test: KINOMEscan; assay type: binding; conditions: read-out: %Ctrl @ 1000 nM
T21 construct: purchased DiscoveRx KINOMEscan

PIP5K2C = target: T22, PIP5K2C (Homo sapiens, UniProt Q8TBX8); test: KINOMEscan; assay type: binding; conditions: read-out: %Ctrl @ 1000 nM
T22 construct: purchased DiscoveRx KINOMEscan

BMPR1B = target: T23, BMPR1B (Homo sapiens, UniProt O00238); test: KINOMEscan; assay type: binding; conditions: read-out: %Ctrl @ 1000 nM
T23 construct: purchased DiscoveRx KINOMEscan
T23 sequence (O00238 14-502): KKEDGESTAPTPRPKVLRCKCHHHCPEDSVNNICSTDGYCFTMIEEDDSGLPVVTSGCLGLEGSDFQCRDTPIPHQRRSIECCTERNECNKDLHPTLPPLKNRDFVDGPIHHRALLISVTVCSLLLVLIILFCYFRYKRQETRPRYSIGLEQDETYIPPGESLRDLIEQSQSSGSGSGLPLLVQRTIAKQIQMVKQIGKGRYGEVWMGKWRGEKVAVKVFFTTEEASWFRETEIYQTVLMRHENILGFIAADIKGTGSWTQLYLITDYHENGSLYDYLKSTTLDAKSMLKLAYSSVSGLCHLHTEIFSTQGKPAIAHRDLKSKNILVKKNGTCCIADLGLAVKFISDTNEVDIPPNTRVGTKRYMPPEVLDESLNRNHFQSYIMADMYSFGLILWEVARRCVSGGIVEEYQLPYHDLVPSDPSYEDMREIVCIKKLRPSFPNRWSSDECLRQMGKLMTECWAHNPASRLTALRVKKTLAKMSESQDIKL

CDK11 = target: T24, CDK11 (Homo sapiens, UniProt Q9BWU1); test: KINOMEscan; assay type: binding; conditions: read-out: %Ctrl @ 1000 nM
T24 construct: purchased DiscoveRx KINOMEscan
T24 sequence (Q9BWU1 whole entry): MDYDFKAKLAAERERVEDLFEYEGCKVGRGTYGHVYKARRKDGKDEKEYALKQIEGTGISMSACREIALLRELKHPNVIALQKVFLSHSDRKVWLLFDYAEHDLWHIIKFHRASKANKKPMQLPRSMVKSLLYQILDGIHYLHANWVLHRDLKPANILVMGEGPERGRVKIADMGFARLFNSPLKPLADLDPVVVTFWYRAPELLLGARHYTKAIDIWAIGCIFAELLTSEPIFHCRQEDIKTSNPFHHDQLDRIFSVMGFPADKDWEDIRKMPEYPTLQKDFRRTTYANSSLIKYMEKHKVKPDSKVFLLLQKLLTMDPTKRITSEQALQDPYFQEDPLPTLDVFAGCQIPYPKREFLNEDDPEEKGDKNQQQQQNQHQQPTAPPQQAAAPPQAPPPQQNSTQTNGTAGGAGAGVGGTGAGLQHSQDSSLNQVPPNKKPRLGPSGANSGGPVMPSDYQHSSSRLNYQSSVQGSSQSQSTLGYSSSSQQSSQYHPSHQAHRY

SGK3 = target: T25, SGK3 (Homo sapiens, UniProt Q96BR1); test: KINOMEscan; assay type: binding; conditions: read-out: %Ctrl @ 1000 nM
T25 construct: purchased DiscoveRx KINOMEscan

RET(V804M) = target: T26, RET(V804M) (Homo sapiens, UniProt P07949, V804M); test: KINOMEscan; assay type: binding; conditions: read-out: %Ctrl @ 1000 nM
T26 construct: purchased DiscoveRx KINOMEscan

PIK3CA(E542K) = target: T27, PIK3CA(E542K) (Homo sapiens, UniProt P42336, E542K); test: KINOMEscan; assay type: binding; conditions: read-out: %Ctrl @ 1000 nM
T27 construct: purchased DiscoveRx KINOMEscan

ERK5 = target: T28, ERK5 (Homo sapiens, UniProt Q13164); test: KINOMEscan; assay type: binding; conditions: read-out: %Ctrl @ 1000 nM
T28 construct: purchased DiscoveRx KINOMEscan

TAOK3 = target: T29, TAOK3 (Homo sapiens, UniProt Q9H2K8); test: KINOMEscan; assay type: binding; conditions: read-out: %Ctrl @ 1000 nM
T29 construct: purchased DiscoveRx KINOMEscan

CSNK1G1 = target: T30, CSNK1G1 (Homo sapiens, UniProt Q9HCP0); test: KINOMEscan; assay type: binding; conditions: read-out: %Ctrl @ 1000 nM
T30 construct: purchased DiscoveRx KINOMEscan
T30 sequence (Q9HCP0 whole entry): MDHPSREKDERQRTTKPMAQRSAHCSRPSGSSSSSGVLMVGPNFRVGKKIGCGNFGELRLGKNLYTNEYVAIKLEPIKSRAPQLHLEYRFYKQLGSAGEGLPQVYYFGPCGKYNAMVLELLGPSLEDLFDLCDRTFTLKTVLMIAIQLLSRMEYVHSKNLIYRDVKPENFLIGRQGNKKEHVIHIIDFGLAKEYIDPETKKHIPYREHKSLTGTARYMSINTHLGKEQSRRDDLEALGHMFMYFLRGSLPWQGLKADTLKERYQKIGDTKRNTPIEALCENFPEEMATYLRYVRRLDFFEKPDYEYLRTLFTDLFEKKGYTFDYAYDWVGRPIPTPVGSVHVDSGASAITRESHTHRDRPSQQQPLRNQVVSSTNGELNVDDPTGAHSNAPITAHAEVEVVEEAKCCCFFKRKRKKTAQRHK

[3] = target: T31, EGFR(L747-S752del, P753S) (Homo sapiens, UniProt P00533, DEL747-752/P753S); test: KINOMEscan; assay type: binding; conditions: read-out: %Ctrl @ 1000 nM
T31 construct: purchased DiscoveRx KINOMEscan
T31 sequence (P00533 with tags, fused parts or gaps DEL747-752/P753S limits assumed): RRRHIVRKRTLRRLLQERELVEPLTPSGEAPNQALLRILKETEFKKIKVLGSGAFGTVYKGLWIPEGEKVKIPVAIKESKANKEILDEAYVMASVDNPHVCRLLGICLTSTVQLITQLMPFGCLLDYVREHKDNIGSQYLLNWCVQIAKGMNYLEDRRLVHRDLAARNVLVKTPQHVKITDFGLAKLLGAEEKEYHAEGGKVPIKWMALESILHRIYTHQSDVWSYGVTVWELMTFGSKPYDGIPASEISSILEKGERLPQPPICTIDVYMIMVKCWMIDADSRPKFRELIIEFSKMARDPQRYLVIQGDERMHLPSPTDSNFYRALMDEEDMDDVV

PRKR = target: T32, PRKR (Homo sapiens, UniProt P19525); test: KINOMEscan; assay type: binding; conditions: read-out: %Ctrl @ 1000 nM
T32 construct: purchased DiscoveRx KINOMEscan

RIOK1 = target: T33, RIOK1 (Homo sapiens, UniProt Q9BRS2); test: KINOMEscan; assay type: binding; conditions: read-out: %Ctrl @ 1000 nM
T33 construct: purchased DiscoveRx KINOMEscan

TESK1 = target: T34, TESK1 (Homo sapiens, UniProt Q15569); test: KINOMEscan; assay type: binding; conditions: read-out: %Ctrl @ 1000 nM
T34 construct: purchased DiscoveRx KINOMEscan

BMPR1A = target: T35, BMPR1A (Homo sapiens, UniProt P36894); test: KINOMEscan; assay type: binding; conditions: read-out: %Ctrl @ 1000 nM
T35 construct: purchased DiscoveRx KINOMEscan

[4] = target: T36, RSK3(Kin.Dom.1-N-terminal) (Homo sapiens, UniProt Q15349); test: KINOMEscan; assay type: binding; conditions: read-out: %Ctrl @ 1000 nM
T36 construct: RSK3(Kin.Dom.1-N-terminal); purchased DiscoveRx KINOMEscan

GSK3A = target: T37, GSK3A (Homo sapiens, UniProt P49840); test: KINOMEscan; assay type: binding; conditions: read-out: %Ctrl @ 1000 nM
T37 construct: purchased DiscoveRx KINOMEscan

PCTK1 = target: T38, PCTK1 (Homo sapiens, UniProt Q00536); test: KINOMEscan; assay type: binding; conditions: read-out: %Ctrl @ 1000 nM
T38 construct: purchased DiscoveRx KINOMEscan

GRK7 = target: T39, GRK7 (Homo sapiens, UniProt Q8WTQ7); test: KINOMEscan; assay type: binding; conditions: read-out: %Ctrl @ 1000 nM
T39 construct: purchased DiscoveRx KINOMEscan
T39 sequence (Q8WTQ7 whole entry): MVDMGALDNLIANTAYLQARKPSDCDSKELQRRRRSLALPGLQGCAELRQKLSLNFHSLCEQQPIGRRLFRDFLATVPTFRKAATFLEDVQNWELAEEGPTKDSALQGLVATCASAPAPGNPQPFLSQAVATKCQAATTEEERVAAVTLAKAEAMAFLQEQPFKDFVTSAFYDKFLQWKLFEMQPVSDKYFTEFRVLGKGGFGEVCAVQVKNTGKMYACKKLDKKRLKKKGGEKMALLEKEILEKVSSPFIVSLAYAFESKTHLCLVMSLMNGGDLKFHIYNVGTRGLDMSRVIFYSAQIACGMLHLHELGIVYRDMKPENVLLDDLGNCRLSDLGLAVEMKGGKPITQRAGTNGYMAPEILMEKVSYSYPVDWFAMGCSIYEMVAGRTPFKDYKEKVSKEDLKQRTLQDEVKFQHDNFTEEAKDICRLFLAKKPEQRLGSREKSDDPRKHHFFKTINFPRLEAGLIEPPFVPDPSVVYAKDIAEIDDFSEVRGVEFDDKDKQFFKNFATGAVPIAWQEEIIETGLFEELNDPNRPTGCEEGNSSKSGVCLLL

PKAC-alpha = target: T40, PKAC-alpha (Homo sapiens, UniProt P17612); test: KINOMEscan; assay type: binding; conditions: read-out: %Ctrl @ 1000 nM
T40 construct: purchased DiscoveRx KINOMEscan

CCN(C(=O)CO)[C@H]1CN(/C(=N\C#N)Nc2cccc(OC(F)F)c2)N=C1c1ccc(Cl)c(Cl)c1 [(S)-4]
remaining binding at 1 µM [1]: 100%
remaining binding at 1 µM (PIK3CA(C420R)): 76%
remaining binding at 1 µM (KIT(D816V)): 86%
remaining binding at 1 µM (TRKC): 55%
remaining binding at 1 µM (ZAK): 95%
remaining binding at 1 µM (FGR): 100%
remaining binding at 1 µM (EPHA2): 84%
remaining binding at 1 µM (EPHA8): 94%
remaining binding at 1 µM (NIM1): 100%
remaining binding at 1 µM (DCAMKL2): 93%
remaining binding at 1 µM [2]: 92%
remaining binding at 1 µM (MLK1): 100%
Mode of inhibition / mode of action (SMYD2): peptide-competitive, SAM-uncompetitive inhibitor; also recorded: substrate competitive
remaining binding at 1 µM (AURKB): 93%
remaining binding at 1 µM (CHEK2): 99%
remaining binding at 1 µM (MKK7): 99%
remaining binding at 1 µM (HASPIN): 100%
remaining binding at 1 µM (CLK4): 94%
remaining binding at 1 µM (TAOK2): 91%
remaining binding at 1 µM (CDKL2): 100%
remaining binding at 1 µM (EPHB2): 74%
remaining binding at 1 µM (VRK2): 93%
remaining binding at 1 µM (PIP5K2C): 85%
remaining binding at 1 µM (BMPR1B): 100%
remaining binding at 1 µM (CDK11): 85%
remaining binding at 1 µM (SGK3): 98%
remaining binding at 1 µM (RET(V804M)): 100%
remaining binding at 1 µM (PIK3CA(E542K)): 92%
remaining binding at 1 µM (ERK5): 80%
remaining binding at 1 µM (TAOK3): 92%
remaining binding at 1 µM (CSNK1G1): 84%
remaining binding at 1 µM [3]: 86%
remaining binding at 1 µM (PRKR): 84%
remaining binding at 1 µM (RIOK1): 77%
remaining binding at 1 µM (TESK1): 94%
remaining binding at 1 µM (BMPR1A): 100%
remaining binding at 1 µM [4]: 91%
remaining binding at 1 µM (GSK3A): 88%
remaining binding at 1 µM (PCTK1): 98%
remaining binding at 1 µM (GRK7): 100%
remaining binding at 1 µM (PKAC-alpha): 74%
